From PubChem BioAssay AID652059 (Broad Institute, 2013)

Test system: D54 ERlucT glioma cells, NLG luciferase reporter, 24 h
Assay: N-linked glycosylation inhibitors, luciferase reporter cells, dose response, cell-based, D54 ERlucT glioma, dry powder, set 5 (AID 652059)

## CC(=O)N[C@H]1[C@@H](O[C@@H]2OC(C[C@@H](O)C3O[C@@H](n4ccc(=O)[nH]c4=O)[C@H](O)[C@@H]3O)[C@H](O)[C@H](O)[C@H]2NC(=O)/C=C/CCCCCCCCCCC(C)C)O[C@H](CO)[C@@H](O)[C@@H]1O (stereo partly specified)
  AC40: 520 nM
